From patent US11186554B2, “Non-fused tricyclic compounds” (VIVACE THERAPEUTICS, INC., priority 2017, dated 2021)

The molecules below were run on firefly luciferase activity (assay: Dual-Glo firefly/renilla luciferase reporter assay in cells). Conditions: 24 h, read-out: Firefly Luciferase IC50 (μM).
Assay type: cell-based

Row | Structure (SMILES) | IC50 [µM]
1 | COc1ccc(Nc2ccc(C(F)(F)F)cc2)c(-c2nnn(CCO)n2)c1 [Compound 240, 2-[5-[5-methoxy-2-[4-(trifluoromethyl)anilino]phenyl]tetrazol-2-yl]ethanol] | < 0.1
2 | OCCn1nnc(-c2ccccc2Nc2ccc(Cl)cc2)n1 [Compound 208, 2-(5-(2-((4-chlorophenyl)amino)phenyl)-2H-tetrazol-2-yl)ethan-1-ol] | 0.1 to 1
3 | OCCn1nnc(-c2ccc(Cl)cc2Nc2ccc(C(F)(F)F)cc2)n1 [Compound 239, 2-(5-(4-chloro-2-((4-(trifluoromethyl)phenyl)amino)phenyl)-2H-tetrazol-2-yl)ethanol] | < 0.1
4 | FC(F)(F)c1ccc(Nc2ccccc2-c2nnn(CCOC3CCNCC3)n2)cc1 [Compound 198, 2-(2-(2-(piperidin-4-yloxy)ethyl)-2H-tetrazol-5-yl)-N-(4-(trifluoromethyl)phenyl)aniline] | 0.1 to 1
5 | OCCn1cnc(-c2ccccc2Nc2ccc(C(F)(F)F)cc2)c1 [Compound 197, 2-(4-(2-((4-(trifluoromethyl)phenyl)amino)phenyl)-1H-imidazol-1-yl)ethan-1-ol] | 0.1 to 1
6 | OCCn1nnc(-c2cc(Cl)ccc2Nc2ccc(C(F)(F)F)cc2)n1 [Compound 238, 2-(5-(5-chloro-2-((4-(trifluoromethyl)phenyl)amino)phenyl)-2H-tetrazol-2-yl)ethanol] | < 0.1

Same assay, conditions: 24 hrs compound treatment, starting from 3 uM, 1:3 dilution, 10 points; read-out: Firefly Luciferase IC50

Row | IC50 [µM] | Structure (SMILES)
7 | < 0.1 | NC(=O)NCCn1nnc(-c2ccccc2Nc2ccc(C(F)(F)F)cc2)n1 [Compound 108, 2-[5-[2-[4-(trifluoromethyl)anilino]phenyl]tetrazol-2-yl]ethylurea]
8 | 1 to 5 | CCN(CC)C(=O)Cn1nnc(-c2ccccc2Nc2ccc(C(F)(F)F)cc2)n1 [Compound 44, N,N-diethyl-2-[5-[2-[4-(trifluoromethyl)anilino]phenyl]tetrazol-2-yl]acetamide]
9 | 1 to 5 | CCOC(=O)Cn1ncc(-c2ccccc2Nc2cccc(C(F)(F)F)c2)c1C [Compound 90, ethyl 2-(5-methyl-4-(2-((3-(trifluoromethyl)phenyl)amino)phenyl)-1H-pyrazol-1-yl)acetate]
10 | 0.1 to 1 | NCCn1nnc(-c2ccccc2Nc2ccc(C(F)(F)F)cc2)n1 [Compound 228, 2-(2-(2-aminoethyl)-2H-tetrazol-5-yl)-N-(4-(trifluoromethyl)phenyl)aniline]
11 | 0.1 to 1 | OCCn1nnc(-c2ccccc2Nc2ccc(F)cc2F)n1 [Compound 28, 2-(5-(2-((2,4-difluorophenyl)amino)phenyl)-2H-tetrazol-2-yl)ethan-1-ol]
12 | < 0.1 | CCOC(=O)C(C)n1nnc(-c2ccccc2Nc2ccc(C(F)(F)F)cc2)n1 (centres unmarked) [Compound 116, ethyl 2-[5-[2-[4-(trifluoromethyl)anilino]phenyl]tetrazol-2-yl]propanoate]
13 | 0.1 to 1 | OC1(Cn2nnc(-c3ccccc3Nc3ccc(C(F)(F)F)cc3)n2)CCCOC1 (centres unmarked) [Compound 142, 3-[[5-[2-[4-(trifluoromethyl)anilino]phenyl]tetrazol-2-yl]methyl]tetra hydropyran-3-ol]
14 | 0.1 to 1 | CC(=O)NCCn1nnc(-c2ccccc2Nc2ccc(C(F)(F)F)cc2)n1 [Compound 92, N-[2-[5-[2-[4-(trifluoromethyl)anilino]phenyl]tetrazol-2-yl]ethyl]acetamide]
15 | 0.1 to 1 | C[C@H](c1ccccc1)N1C(=O)OC[C@H]1Cn1nnc(-c2ccccc2Nc2ccc(C(F)(F)F)cc2)n1 [Compound 132, (4R)-3-[(1R)-1-phenylethyl]-4-[[5-[2-[4-(trifluoromethyl)anilino]phenyl]tetrazol-2-yl]methyl]oxazolidin-2-one]

The next lines start with the molecule.

Row | Structure (SMILES) | IC50 [µM]
16 | CC(CO)c1nc(-c2ccccc2Nc2ccc(C(F)(F)F)cc2)nn1C (centres unmarked) [Compound 206, 2-(1-methyl-3-(2-((4-(trifluoromethyl)phenyl)amino)phenyl)-1H-1,2,4-triazol-5-yl)propan-1-ol] | 1 to 5
17 | CO[C@H](C)[C@@H](C)n1nnc(-c2ccccc2Nc2ccc(C(F)(F)F)cc2)n1 [Compound 213, 2-(2-((2R,3R)-3-methoxybutan-2-yl)-2H-tetrazol-5-yl)-N-(4-(trifluoromethyl)phenyl)aniline] | 0.1 to 1
